The kinase profiling compilation of Christmann-Franck et al. (2016)

Key:
Test in all cases: radiometric filter-binding kinase assay
INSRR (human) = INSRR (human) (UniProt P14616)
PHKG1 (human) = PHKG1 (human) (UniProt Q16816)
PRKAA1 or PRKAA2 (rat) = conditions: accession and sequence are those of the human protein
MINK1 (human) = MINK1 (human) (UniProt Q8N4C8)
NUAK1 (human) = NUAK1 (human) (UniProt O60285)
MARK2 (human) = MARK2 (human) (UniProt Q7KZI7)
PAK7 (human) = PAK7 (human) (UniProt Q9P286)
JAK2 JH1 JH2 (human) = JAK2 JH1 JH2 (human) (UniProt O60674)
CSK (human) = CSK (human) (UniProt P41240); conditions: compound 5.0 µM
RPS6KA5 KD1 KD2 (human) = RPS6KA5 KD1 KD2 (human) (UniProt O75582)
DYRK2 (human) = DYRK2 (human) (UniProt Q92630)
MARK1 (human) = MARK1 (human) (UniProt Q9P0L2)
EPHB2 (human) = EPHB2 (human) (UniProt P29323)
NEK2 (human) = NEK2 (human) (UniProt P51955); conditions: compound 1.0 µM
EPHA2 (human) = EPHA2 (human) (UniProt P29317)
PRKACA (human) = PRKACA (human) (UniProt P17612)
PRKCA (human) = PRKCA (human) (UniProt P17252)
MKNK1 (human) = MKNK1 (human) (UniProt Q9BUB5)
CDK2 CCNA2 (human) = CDK2 CCNA2 (human) (UniProt P20248+P24941)
HIPK3 (human) = HIPK3 (human) (UniProt Q9H422)
NEK6 (human) = NEK6 (human) (UniProt Q9HC98)
MAPK15 (human) = MAPK15 (human) (UniProt Q8TD08)
ERBB4 (human) = ERBB4 (human) (UniProt Q15303)
CaMK1 (human) = CaMK1 (human) (UniProt Q14012)
SRPK1 (human) = SRPK1 (human) (UniProt Q96SB4)
RIPK2 (human) = RIPK2 (human) (UniProt O43353)
BRSK1 (human) = BRSK1 (human) (UniProt Q8TDC3)
EPHA4 (human) = EPHA4 (human) (UniProt P54764)
LCK (mouse) = conditions: compound 1.0 µM; accession and sequence are those of the human protein
MST4 (human) = MST4 (human) (UniProt Q9P289)
MAP2K1 (human) = MAP2K1 (human) (UniProt Q02750)
BTK (human) = BTK (human) (UniProt Q06187)
MAPKAPK2 (human) = MAPKAPK2 (human) (UniProt P49137)

BTK (human), sequence (Q06187 whole entry, looked up): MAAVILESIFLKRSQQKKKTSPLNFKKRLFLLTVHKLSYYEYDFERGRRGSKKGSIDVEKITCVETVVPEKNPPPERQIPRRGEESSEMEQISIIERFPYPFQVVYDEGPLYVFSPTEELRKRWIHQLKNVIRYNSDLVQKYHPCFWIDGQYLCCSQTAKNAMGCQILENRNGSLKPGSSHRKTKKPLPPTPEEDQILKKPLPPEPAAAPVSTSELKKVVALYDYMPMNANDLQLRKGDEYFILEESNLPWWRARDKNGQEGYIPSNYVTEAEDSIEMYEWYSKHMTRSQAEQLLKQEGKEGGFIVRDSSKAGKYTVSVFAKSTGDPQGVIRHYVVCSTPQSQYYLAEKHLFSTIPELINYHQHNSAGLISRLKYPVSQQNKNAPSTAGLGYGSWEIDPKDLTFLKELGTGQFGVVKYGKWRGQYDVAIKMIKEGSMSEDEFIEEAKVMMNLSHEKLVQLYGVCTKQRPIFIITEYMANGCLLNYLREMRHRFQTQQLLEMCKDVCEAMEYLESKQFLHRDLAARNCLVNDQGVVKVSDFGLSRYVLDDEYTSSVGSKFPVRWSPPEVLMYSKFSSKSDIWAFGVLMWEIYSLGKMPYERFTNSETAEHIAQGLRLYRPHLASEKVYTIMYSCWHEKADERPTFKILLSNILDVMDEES
CaMK1 (human), sequence (Q14012 whole entry, looked up): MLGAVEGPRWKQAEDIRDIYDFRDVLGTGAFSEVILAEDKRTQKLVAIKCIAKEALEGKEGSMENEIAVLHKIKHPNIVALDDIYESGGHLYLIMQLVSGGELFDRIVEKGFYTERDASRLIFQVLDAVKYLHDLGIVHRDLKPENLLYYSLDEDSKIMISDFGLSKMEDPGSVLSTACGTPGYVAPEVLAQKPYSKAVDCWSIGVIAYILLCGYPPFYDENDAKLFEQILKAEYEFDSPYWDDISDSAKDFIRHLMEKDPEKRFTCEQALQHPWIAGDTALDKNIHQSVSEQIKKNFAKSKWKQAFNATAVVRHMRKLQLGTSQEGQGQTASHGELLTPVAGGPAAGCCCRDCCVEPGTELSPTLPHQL
MAPK15 (human), sequence (Q8TD08 whole entry, looked up): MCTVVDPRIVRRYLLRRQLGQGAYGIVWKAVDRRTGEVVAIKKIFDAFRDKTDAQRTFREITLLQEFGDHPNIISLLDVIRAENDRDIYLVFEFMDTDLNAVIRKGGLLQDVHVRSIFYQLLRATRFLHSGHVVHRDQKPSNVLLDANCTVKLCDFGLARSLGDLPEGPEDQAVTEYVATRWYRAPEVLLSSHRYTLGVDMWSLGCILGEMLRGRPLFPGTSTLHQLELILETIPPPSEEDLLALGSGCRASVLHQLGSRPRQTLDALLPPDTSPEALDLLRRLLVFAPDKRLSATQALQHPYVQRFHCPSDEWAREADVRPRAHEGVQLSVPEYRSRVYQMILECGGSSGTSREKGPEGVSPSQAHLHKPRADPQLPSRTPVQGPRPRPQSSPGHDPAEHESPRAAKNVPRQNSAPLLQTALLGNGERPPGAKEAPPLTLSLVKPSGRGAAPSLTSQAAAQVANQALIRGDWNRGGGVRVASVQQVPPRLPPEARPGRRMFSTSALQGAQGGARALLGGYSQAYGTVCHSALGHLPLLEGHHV
MINK1 (human), sequence (Q8N4C8 whole entry, looked up): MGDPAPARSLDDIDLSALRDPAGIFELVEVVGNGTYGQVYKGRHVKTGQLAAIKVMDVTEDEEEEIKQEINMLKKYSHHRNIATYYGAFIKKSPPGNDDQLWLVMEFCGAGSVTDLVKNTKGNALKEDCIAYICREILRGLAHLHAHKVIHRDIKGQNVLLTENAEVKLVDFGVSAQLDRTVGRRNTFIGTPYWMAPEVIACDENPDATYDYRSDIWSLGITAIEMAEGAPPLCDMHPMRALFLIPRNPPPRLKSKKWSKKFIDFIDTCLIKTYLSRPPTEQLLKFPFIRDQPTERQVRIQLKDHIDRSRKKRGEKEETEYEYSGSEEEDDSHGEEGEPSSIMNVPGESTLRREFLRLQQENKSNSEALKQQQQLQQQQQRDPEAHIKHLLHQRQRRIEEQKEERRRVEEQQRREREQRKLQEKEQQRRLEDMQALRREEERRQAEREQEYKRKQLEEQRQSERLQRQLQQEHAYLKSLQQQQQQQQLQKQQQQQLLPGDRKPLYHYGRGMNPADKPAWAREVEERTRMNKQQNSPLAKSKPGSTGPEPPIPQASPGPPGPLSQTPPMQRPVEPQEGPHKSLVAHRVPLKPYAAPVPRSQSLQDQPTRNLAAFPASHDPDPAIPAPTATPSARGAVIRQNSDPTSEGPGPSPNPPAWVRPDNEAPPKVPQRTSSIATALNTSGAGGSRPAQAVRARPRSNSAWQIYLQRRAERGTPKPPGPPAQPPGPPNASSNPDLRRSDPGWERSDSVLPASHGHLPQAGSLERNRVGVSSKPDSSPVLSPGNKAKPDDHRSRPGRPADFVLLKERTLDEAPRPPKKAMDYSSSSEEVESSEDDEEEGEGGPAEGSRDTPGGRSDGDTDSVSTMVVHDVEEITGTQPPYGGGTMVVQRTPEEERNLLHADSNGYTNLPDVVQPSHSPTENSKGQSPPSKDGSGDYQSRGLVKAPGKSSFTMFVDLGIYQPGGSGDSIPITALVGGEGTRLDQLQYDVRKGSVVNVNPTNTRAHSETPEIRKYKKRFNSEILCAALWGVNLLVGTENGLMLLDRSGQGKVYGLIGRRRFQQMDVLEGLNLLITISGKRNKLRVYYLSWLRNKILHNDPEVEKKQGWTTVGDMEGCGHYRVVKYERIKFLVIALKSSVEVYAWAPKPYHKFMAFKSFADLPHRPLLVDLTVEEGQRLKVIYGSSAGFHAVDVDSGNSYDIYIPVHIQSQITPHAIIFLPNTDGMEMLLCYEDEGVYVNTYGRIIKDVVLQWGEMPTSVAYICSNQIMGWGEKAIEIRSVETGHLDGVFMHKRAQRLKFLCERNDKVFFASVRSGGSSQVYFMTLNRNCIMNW
JAK2 JH1 JH2 (human), sequence (O60674 whole entry, looked up): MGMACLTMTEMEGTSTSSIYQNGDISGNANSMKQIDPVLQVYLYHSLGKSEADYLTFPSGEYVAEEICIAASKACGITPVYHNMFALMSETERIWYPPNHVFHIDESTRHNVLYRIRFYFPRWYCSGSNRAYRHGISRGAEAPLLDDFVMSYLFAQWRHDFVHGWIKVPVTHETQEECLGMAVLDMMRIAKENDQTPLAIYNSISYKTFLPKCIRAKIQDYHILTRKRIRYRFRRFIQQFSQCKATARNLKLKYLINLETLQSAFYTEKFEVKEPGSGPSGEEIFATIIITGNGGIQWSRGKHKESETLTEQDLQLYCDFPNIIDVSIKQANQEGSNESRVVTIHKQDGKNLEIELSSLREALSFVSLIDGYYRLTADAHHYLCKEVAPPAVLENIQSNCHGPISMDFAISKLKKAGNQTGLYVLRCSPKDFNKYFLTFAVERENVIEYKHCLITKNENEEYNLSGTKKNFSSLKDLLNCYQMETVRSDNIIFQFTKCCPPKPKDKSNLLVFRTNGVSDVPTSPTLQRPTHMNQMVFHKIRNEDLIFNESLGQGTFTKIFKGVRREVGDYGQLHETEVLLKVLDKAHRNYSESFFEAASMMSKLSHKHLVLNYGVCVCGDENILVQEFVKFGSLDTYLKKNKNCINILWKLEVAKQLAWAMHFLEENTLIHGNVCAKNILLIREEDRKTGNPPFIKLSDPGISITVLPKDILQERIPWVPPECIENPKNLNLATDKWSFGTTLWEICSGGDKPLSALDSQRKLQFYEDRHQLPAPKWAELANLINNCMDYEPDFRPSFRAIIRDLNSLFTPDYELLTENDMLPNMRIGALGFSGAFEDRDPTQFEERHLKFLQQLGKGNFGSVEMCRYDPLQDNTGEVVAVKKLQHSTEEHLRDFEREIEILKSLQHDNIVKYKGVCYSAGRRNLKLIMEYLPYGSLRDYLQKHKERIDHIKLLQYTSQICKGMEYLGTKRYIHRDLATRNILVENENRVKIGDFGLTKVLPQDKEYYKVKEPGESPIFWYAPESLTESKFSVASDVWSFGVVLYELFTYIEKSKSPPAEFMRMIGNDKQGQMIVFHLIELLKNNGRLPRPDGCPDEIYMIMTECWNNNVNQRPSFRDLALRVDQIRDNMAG
EPHA4 (human), sequence (P54764 whole entry, looked up): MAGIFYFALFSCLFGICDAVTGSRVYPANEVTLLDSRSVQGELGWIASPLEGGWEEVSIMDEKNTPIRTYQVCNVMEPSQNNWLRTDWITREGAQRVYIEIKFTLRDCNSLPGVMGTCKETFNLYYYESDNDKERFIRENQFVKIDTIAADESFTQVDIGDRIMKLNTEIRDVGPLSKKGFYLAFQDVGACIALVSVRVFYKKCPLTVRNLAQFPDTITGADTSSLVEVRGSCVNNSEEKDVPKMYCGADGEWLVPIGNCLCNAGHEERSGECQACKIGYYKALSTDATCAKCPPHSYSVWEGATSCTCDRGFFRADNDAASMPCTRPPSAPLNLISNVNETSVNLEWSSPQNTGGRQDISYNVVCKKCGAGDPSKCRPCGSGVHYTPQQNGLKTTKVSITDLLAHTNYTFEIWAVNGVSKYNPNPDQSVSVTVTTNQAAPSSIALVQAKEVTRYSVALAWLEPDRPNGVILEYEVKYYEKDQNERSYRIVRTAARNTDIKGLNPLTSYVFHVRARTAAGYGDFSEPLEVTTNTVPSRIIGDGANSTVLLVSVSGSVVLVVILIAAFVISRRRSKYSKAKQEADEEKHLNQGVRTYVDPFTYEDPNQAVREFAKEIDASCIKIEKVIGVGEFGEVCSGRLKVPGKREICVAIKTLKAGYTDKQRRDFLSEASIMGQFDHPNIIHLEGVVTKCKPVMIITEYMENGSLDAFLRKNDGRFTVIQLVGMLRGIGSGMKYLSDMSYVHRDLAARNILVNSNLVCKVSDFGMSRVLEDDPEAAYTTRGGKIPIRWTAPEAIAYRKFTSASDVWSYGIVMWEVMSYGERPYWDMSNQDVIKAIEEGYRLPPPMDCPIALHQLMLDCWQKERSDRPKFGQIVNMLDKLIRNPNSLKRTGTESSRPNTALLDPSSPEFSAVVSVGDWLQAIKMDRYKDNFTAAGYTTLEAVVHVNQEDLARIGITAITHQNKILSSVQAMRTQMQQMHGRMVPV

SMILES: C=C1C(=O)OC2C1CC/C(C)=C/CCC1(C)OC21 (stereo not drawn)
- residual activity (INSRR (human); compound 1.0 µM): 107%
- residual activity (INSRR (human); compound 5.0 µM): 95%
- residual activity (PHKG1 (human); compound 1.0 µM): 116%
- residual activity (PHKG1 (human); compound 5.0 µM): 108%
- residual activity (PRKAA1 or PRKAA2 (rat); compound 1.0 µM): 97%
- residual activity (PRKAA1 or PRKAA2 (rat); compound 5.0 µM): 98%
- residual activity (MINK1 (human); compound 1.0 µM): 108%
- residual activity (MINK1 (human); compound 5.0 µM): 122%
- residual activity (NUAK1 (human); compound 1.0 µM): 130%
- residual activity (NUAK1 (human); compound 5.0 µM): 111%
- residual activity (MARK2 (human); compound 1.0 µM): 112%
- residual activity (MARK2 (human); compound 5.0 µM): 102%
- residual activity (PAK7 (human); compound 1.0 µM): 117%
- residual activity (PAK7 (human); compound 5.0 µM): 98%
- residual activity (JAK2 JH1 JH2 (human); compound 1.0 µM): 116%
- residual activity (JAK2 JH1 JH2 (human); compound 5.0 µM): 98%
- residual activity (CSK (human)): 98%
- residual activity (RPS6KA5 KD1 KD2 (human); compound 1.0 µM): 110%
- residual activity (RPS6KA5 KD1 KD2 (human); compound 5.0 µM): 106%
- residual activity (DYRK2 (human); compound 1.0 µM): 113%
- residual activity (DYRK2 (human); compound 5.0 µM): 101%
- residual activity (MARK1 (human); compound 1.0 µM): 100%
- residual activity (MARK1 (human); compound 5.0 µM): 94%
- residual activity (EPHB2 (human); compound 1.0 µM): 72%
- residual activity (EPHB2 (human); compound 5.0 µM): 78%
- residual activity (NEK2 (human)): 110%
- residual activity (EPHA2 (human); compound 1.0 µM): 104%
- residual activity (EPHA2 (human); compound 5.0 µM): 99%
- residual activity (PRKACA (human); compound 1.0 µM): 121%
- residual activity (PRKACA (human); compound 5.0 µM): 103%
- residual activity (PRKCA (human); compound 1.0 µM): 108%
- residual activity (PRKCA (human); compound 5.0 µM): 108%
- residual activity (MKNK1 (human); compound 1.0 µM): 116%
- residual activity (MKNK1 (human); compound 5.0 µM): 94%
- residual activity (CDK2 CCNA2 (human); compound 1.0 µM): 93%
- residual activity (CDK2 CCNA2 (human); compound 5.0 µM): 116%
- residual activity (HIPK3 (human); compound 1.0 µM): 110%
- residual activity (HIPK3 (human); compound 5.0 µM): 122%
- residual activity (NEK6 (human); compound 1.0 µM): 113%
- residual activity (NEK6 (human); compound 5.0 µM): 82%
- residual activity (MAPK15 (human); compound 1.0 µM): 98%
- residual activity (MAPK15 (human); compound 5.0 µM): 119%
- residual activity (ERBB4 (human); compound 1.0 µM): 98%
- residual activity (ERBB4 (human); compound 5.0 µM): 90%
- residual activity (CaMK1 (human); compound 1.0 µM): 116%
- residual activity (CaMK1 (human); compound 5.0 µM): 104%
- residual activity (SRPK1 (human); compound 1.0 µM): 111%
- residual activity (SRPK1 (human); compound 5.0 µM): 106%
- residual activity (RIPK2 (human); compound 1.0 µM): 101%
- residual activity (RIPK2 (human); compound 5.0 µM): 112%
- residual activity (BRSK1 (human); compound 1.0 µM): 109%
- residual activity (BRSK1 (human); compound 5.0 µM): 108%
- residual activity (EPHA4 (human); compound 1.0 µM): 110%
- residual activity (EPHA4 (human); compound 5.0 µM): 87%
- residual activity (LCK (mouse)): 112%
- residual activity (MST4 (human); compound 1.0 µM): 88%
- residual activity (MST4 (human); compound 5.0 µM): 94%
- residual activity (MAP2K1 (human); compound 1.0 µM): 96%
- residual activity (MAP2K1 (human); compound 5.0 µM): 93%
- residual activity (BTK (human); compound 1.0 µM): 117%
- residual activity (BTK (human); compound 5.0 µM): 85%
- residual activity (MAPKAPK2 (human); compound 1.0 µM): 72%
- residual activity (MAPKAPK2 (human); compound 5.0 µM): 64%
